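The compound was tested at five concentrations on cells cultured in 96-well plates, with a 48-hour exposure period. TGI marks complete inhibition of growth.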
Columns and labels:
Assay in all cases: NCI-60 cell line screen, 48 h
A498 renal = tested on: A498 renal
SW-620 colon = tested on: SW-620 colon
EKVX NSCLC = tested on: EKVX NSCLC
BT-549 breast = tested on: BT-549 breast
HCT-15 colon = tested on: HCT-15 colon
UACC-257 melanoma = tested on: UACC-257 melanoma
HS 578T breast = tested on: HS 578T breast
SF-295 CNS = tested on: SF-295 CNS
KM12 colon = tested on: KM12 colon
UO-31 renal = tested on: UO-31 renal
786-0 renal = tested on: 786-0 renal
HT29 colon = tested on: HT29 colon
SK-OV-3 ovarian = tested on: SK-OV-3 ovarian
PC-3 prostate = tested on: PC-3 prostate
T-47D breast = tested on: T-47D breast
ACHN renal = tested on: ACHN renal
CAKI-1 renal = tested on: CAKI-1 renal
MALME-3M melanoma = tested on: MALME-3M melanoma
MDA-MB-435 = tested on: MDA-MB-435
COLO 205 colon = tested on: COLO 205 colon
NCI-H226 lung = tested on: NCI-H226 lung
SNB-19 CNS = tested on: SNB-19 CNS
IGROV1 ovarian = tested on: IGROV1 ovarian
OVCAR-8 ovarian = tested on: OVCAR-8 ovarian
RPMI-8226 leukemia = tested on: RPMI-8226 leukemia
SF-539 CNS = tested on: SF-539 CNS
OVCAR-4 ovarian = tested on: OVCAR-4 ovarian
MDA-N = tested on: MDA-N
NCI-H522 lung = tested on: NCI-H522 lung
CCRF-CEM leukemia = tested on: CCRF-CEM leukemia
U251 CNS = tested on: U251 CNS
NCI-H460 lung = tested on: NCI-H460 lung
UACC-62 melanoma = tested on: UACC-62 melanoma
MCF7 breast = tested on: MCF7 breast
NCI/ADR-RES ovarian = tested on: NCI/ADR-RES ovarian
HOP-92 NSCLC = tested on: HOP-92 NSCLC
M14 melanoma = tested on: M14 melanoma
SR leukemia = tested on: SR leukemia
HCC-2998 colon = tested on: HCC-2998 colon
HOP-62 NSCLC = tested on: HOP-62 NSCLC
HCT-116 colon = tested on: HCT-116 colon
A549 NSCLC = tested on: A549 NSCLC
OVCAR-5 ovarian = tested on: OVCAR-5 ovarian
OVCAR-3 ovarian = tested on: OVCAR-3 ovarian
MDA-MB-231 breast = tested on: MDA-MB-231 breast
RXF 393 renal = tested on: RXF 393 renal
SF-268 CNS = tested on: SF-268 CNS
MOLT-4 leukemia = tested on: MOLT-4 leukemia
LOX IMVI melanoma = tested on: LOX IMVI melanoma
TK-10 renal = tested on: TK-10 renal
SK-MEL-28 melanoma = tested on: SK-MEL-28 melanoma
DU-145 prostate = tested on: DU-145 prostate
SN12C renal = tested on: SN12C renal
K-562 leukemia = tested on: K-562 leukemia
SNB-75 CNS = tested on: SNB-75 CNS
SK-MEL-5 melanoma = tested on: SK-MEL-5 melanoma
SK-MEL-2 melanoma = tested on: SK-MEL-2 melanoma
NCI-H23 lung = tested on: NCI-H23 lung

With COc1ccc2[nH]c(S(=O)(=O)N3CC(CCl)c4ccc(N)cc43)cc2c1 (stereo unspecified) the TGI (A498 renal) was 17.6 µM, the TGI (SW-620 colon) was > 100 µM and the TGI (EKVX NSCLC) was 52.6 µM. It also gave a TGI (BT-549 breast) of 27.6 µM, a TGI (HCT-15 colon) of 26.4 µM and a TGI (UACC-257 melanoma) of 67.5 µM. For the same compound, the TGI (HS 578T breast) was 16.5 µM, the TGI (SF-295 CNS) was 2.27 µM and the TGI (KM12 colon) was 3.86 µM. The TGI (UO-31 renal) was 4 µM, the TGI (786-0 renal) was 14.7 µM and the TGI (HT29 colon) was 4.69 µM. The TGI (SK-OV-3 ovarian) was 38.3 µM, the TGI (PC-3 prostate) was 16.6 µM and the TGI (T-47D breast) was > 100 µM. For the same compound, the TGI (ACHN renal) was 49.5 µM, the TGI (CAKI-1 renal) was 19.9 µM and the TGI (MALME-3M melanoma) was 27.6 µM. The TGI (MDA-MB-435) was 3.35 µM, the TGI (COLO 205 colon) was 53.3 µM and the TGI (NCI-H226 lung) was 20.1 µM. For the same compound, the TGI (SNB-19 CNS) was > 100 µM, the TGI (IGROV1 ovarian) was 24.2 µM and the TGI (OVCAR-8 ovarian) was 19.4 µM. For the same compound, the TGI (RPMI-8226 leukemia) was 22 µM, the TGI (SF-539 CNS) was 12.7 µM and the TGI (OVCAR-4 ovarian) was 35.3 µM. For the same compound, the TGI (MDA-N) was < 0.0189 µM, the TGI (NCI-H522 lung) was 10.1 µM and the TGI (CCRF-CEM leukemia) was > 50.7 µM. For the same compound, the TGI (U251 CNS) was > 70.5 µM, the TGI (NCI-H460 lung) was 14.2 µM and the TGI (UACC-62 melanoma) was 25.4 µM. The TGI (MCF7 breast) was > 100 µM, the TGI (NCI/ADR-RES ovarian) was 18.6 µM and the TGI (HOP-92 NSCLC) was 63.4 µM. For the same compound, the TGI (M14 melanoma) was 16.6 µM, the TGI (SR leukemia) was 16.9 µM and the TGI (HCC-2998 colon) was 14.9 µM. For the same compound, the TGI (HOP-62 NSCLC) was 28.6 µM, the TGI (HCT-116 colon) was > 31.8 µM and the TGI (A549 NSCLC) was 36 µM. It also gave a TGI (OVCAR-5 ovarian) of 35.2 µM, a TGI (OVCAR-3 ovarian) of 25.8 µM and a TGI (MDA-MB-231 breast) of 26.9 µM. It also gave a TGI (RXF 393 renal) of 29.4 µM, a TGI (SF-268 CNS) of 14.1 µM and a TGI (MOLT-4 leukemia) of 18.4 µM. For the same compound, the TGI (LOX IMVI melanoma) was 17.7 µM, the TGI (TK-10 renal) was > 82.3 µM and the TGI (SK-MEL-28 melanoma) was 68.2 µM. For the same compound, the TGI (DU-145 prostate) was > 37.4 µM and the TGI (SN12C renal) was 16.5 µM.
For CN(Cc1cnc2c(n1)C(N)=NN(N)N2)c1ccc(C(=O)NC(CCP(=O)(O)O)C(=O)O)cc1 (stereo unspecified), the TGI (A498 renal) was > 100 µM, the TGI (SW-620 colon) was > 100 µM and the TGI (EKVX NSCLC) was > 100 µM. For the same compound, the TGI (BT-549 breast) was > 89.6 µM, the TGI (HCT-15 colon) was > 100 µM and the TGI (UACC-257 melanoma) was > 100 µM. The TGI (HS 578T breast) was > 100 µM, the TGI (K-562 leukemia) was > 100 µM and the TGI (SF-295 CNS) was > 100 µM. The TGI (KM12 colon) was > 100 µM, the TGI (UO-31 renal) was > 100 µM and the TGI (HT29 colon) was > 38.8 µM. For the same compound, the TGI (SK-OV-3 ovarian) was > 100 µM, the TGI (PC-3 prostate) was > 100 µM and the TGI (T-47D breast) was > 100 µM. For the same compound, the TGI (ACHN renal) was > 100 µM, the TGI (CAKI-1 renal) was > 100 µM and the TGI (MALME-3M melanoma) was > 100 µM. For the same compound, the TGI (MDA-MB-435) was > 100 µM, the TGI (COLO 205 colon) was > 100 µM and the TGI (NCI-H226 lung) was > 54 µM. For the same compound, the TGI (SNB-75 CNS) was > 100 µM, the TGI (SNB-19 CNS) was > 100 µM and the TGI (IGROV1 ovarian) was > 100 µM. The TGI (OVCAR-8 ovarian) was > 58.3 µM, the TGI (RPMI-8226 leukemia) was > 100 µM and the TGI (SF-539 CNS) was > 100 µM. The TGI (OVCAR-4 ovarian) was > 100 µM, the TGI (MDA-N) was > 100 µM and the TGI (NCI-H522 lung) was > 100 µM. The TGI (CCRF-CEM leukemia) was > 100 µM, the TGI (U251 CNS) was > 100 µM and the TGI (NCI-H460 lung) was > 100 µM. For the same compound, the TGI (UACC-62 melanoma) was > 100 µM, the TGI (MCF7 breast) was > 100 µM and the TGI (NCI/ADR-RES ovarian) was > 55.8 µM. The TGI (HOP-92 NSCLC) was > 100 µM, the TGI (M14 melanoma) was > 100 µM and the TGI (SR leukemia) was > 100 µM. The TGI (SK-MEL-5 melanoma) was > 100 µM, the TGI (HCC-2998 colon) was > 100 µM and the TGI (HOP-62 NSCLC) was > 100 µM. For the same compound, the TGI (SK-MEL-2 melanoma) was > 100 µM, the TGI (A549 NSCLC) was > 100 µM and the TGI (NCI-H23 lung) was > 100 µM. For the same compound, the TGI (OVCAR-3 ovarian) was > 100 µM, the TGI (MDA-MB-231 breast) was > 100 µM and the TGI (RXF 393 renal) was 71.8 µM. The TGI (SF-268 CNS) was > 100 µM, the TGI (MOLT-4 leukemia) was > 100 µM and the TGI (LOX IMVI melanoma) was > 100 µM. The TGI (TK-10 renal) was > 100 µM, the TGI (SK-MEL-28 melanoma) was > 100 µM and the TGI (DU-145 prostate) was > 100 µM. The TGI (SN12C renal) was > 100 µM.
In the case of COc1cc2c(cc1O)NC(=S)[C@@H]1CCCN1C2=O, the TGI (A498 renal) is reported as > 100 µM, the TGI (SW-620 colon) is reported as > 100 µM and the TGI (EKVX NSCLC) is reported as > 100 µM. For the same compound, the TGI (BT-549 breast) was > 100 µM, the TGI (HCT-15 colon) was > 100 µM and the TGI (UACC-257 melanoma) was > 100 µM. For the same compound, the TGI (HS 578T breast) was > 100 µM, the TGI (K-562 leukemia) was > 100 µM and the TGI (SF-295 CNS) was > 100 µM. For the same compound, the TGI (KM12 colon) was > 100 µM, the TGI (UO-31 renal) was > 100 µM and the TGI (786-0 renal) was > 100 µM. The TGI (HT29 colon) was > 100 µM, the TGI (SK-OV-3 ovarian) was > 100 µM and the TGI (PC-3 prostate) was > 100 µM. For the same compound, the TGI (T-47D breast) was > 100 µM, the TGI (ACHN renal) was > 100 µM and the TGI (CAKI-1 renal) was > 100 µM. The TGI (MALME-3M melanoma) was > 100 µM, the TGI (MDA-MB-435) was > 100 µM and the TGI (COLO 205 colon) was > 100 µM. For the same compound, the TGI (NCI-H226 lung) was > 100 µM, the TGI (SNB-75 CNS) was > 100 µM and the TGI (SNB-19 CNS) was > 100 µM. For the same compound, the TGI (IGROV1 ovarian) was > 100 µM, the TGI (OVCAR-8 ovarian) was > 100 µM and the TGI (RPMI-8226 leukemia) was > 100 µM. For the same compound, the TGI (SF-539 CNS) was > 100 µM, the TGI (OVCAR-4 ovarian) was > 100 µM and the TGI (MDA-N) was > 100 µM. For the same compound, the TGI (NCI-H522 lung) was > 100 µM, the TGI (CCRF-CEM leukemia) was > 100 µM and the TGI (U251 CNS) was > 100 µM. For the same compound, the TGI (NCI-H460 lung) was > 100 µM, the TGI (UACC-62 melanoma) was > 100 µM and the TGI (MCF7 breast) was > 100 µM. The TGI (NCI/ADR-RES ovarian) was > 100 µM, the TGI (HOP-92 NSCLC) was > 100 µM and the TGI (M14 melanoma) was > 100 µM. For the same compound, the TGI (SR leukemia) was > 100 µM, the TGI (SK-MEL-5 melanoma) was > 100 µM and the TGI (HCC-2998 colon) was > 100 µM. The TGI (HOP-62 NSCLC) was > 100 µM, the TGI (HCT-116 colon) was > 100 µM and the TGI (SK-MEL-2 melanoma) was > 100 µM. For the same compound, the TGI (A549 NSCLC) was > 100 µM, the TGI (NCI-H23 lung) was > 100 µM and the TGI (OVCAR-5 ovarian) was > 100 µM. For the same compound, the TGI (OVCAR-3 ovarian) was > 100 µM, the TGI (MDA-MB-231 breast) was > 100 µM and the TGI (RXF 393 renal) was > 100 µM. The TGI (SF-268 CNS) was > 100 µM, the TGI (MOLT-4 leukemia) was > 100 µM and the TGI (LOX IMVI melanoma) was > 100 µM. The TGI (TK-10 renal) was > 100 µM, the TGI (SK-MEL-28 melanoma) was > 100 µM and the TGI (DU-145 prostate) was > 100 µM. For the same compound, the TGI (SN12C renal) was > 100 µM.

— PubChem BioAssay (NCI)
